What all share (type): cell-based
One assay has as its target T1, human TLR8 (Homo sapiens, UniProt Q9NR97).
T1 construct: expressed in transfected cells; host or cells: HEK293
T1 sequence (Q9NR97 27-1041): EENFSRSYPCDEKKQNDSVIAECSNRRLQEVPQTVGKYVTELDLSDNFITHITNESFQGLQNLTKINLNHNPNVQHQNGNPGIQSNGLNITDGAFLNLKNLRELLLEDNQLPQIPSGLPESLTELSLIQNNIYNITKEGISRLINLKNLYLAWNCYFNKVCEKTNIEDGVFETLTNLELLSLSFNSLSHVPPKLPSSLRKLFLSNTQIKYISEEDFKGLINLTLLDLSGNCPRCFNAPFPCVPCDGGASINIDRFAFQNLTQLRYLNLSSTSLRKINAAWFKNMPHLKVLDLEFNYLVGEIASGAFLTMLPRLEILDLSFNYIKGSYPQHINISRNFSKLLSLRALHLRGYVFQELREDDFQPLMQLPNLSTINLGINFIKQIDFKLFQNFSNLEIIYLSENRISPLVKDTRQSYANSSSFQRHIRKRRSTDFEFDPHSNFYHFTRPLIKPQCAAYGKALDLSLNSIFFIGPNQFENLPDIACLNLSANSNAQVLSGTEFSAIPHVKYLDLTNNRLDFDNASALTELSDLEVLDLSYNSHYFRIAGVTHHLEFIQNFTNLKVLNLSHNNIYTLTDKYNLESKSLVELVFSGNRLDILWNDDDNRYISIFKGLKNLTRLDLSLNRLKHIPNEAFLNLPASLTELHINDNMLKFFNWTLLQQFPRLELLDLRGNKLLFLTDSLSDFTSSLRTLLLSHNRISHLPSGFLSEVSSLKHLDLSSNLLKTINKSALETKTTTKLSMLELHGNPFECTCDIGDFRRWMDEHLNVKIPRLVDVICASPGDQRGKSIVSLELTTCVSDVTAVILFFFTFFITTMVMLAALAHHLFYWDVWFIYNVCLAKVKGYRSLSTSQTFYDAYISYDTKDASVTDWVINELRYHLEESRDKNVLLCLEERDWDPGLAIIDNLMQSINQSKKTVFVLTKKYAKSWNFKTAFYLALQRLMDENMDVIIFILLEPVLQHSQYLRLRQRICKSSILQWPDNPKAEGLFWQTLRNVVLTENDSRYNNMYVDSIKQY
Put plainly: TLR8 cellular NFκB-luc reporter assay in transiently transfected HEK293 cells. The note with it: lowest effective concentration, 6 hours incubation. The method, then: (§1) The ability of compounds to activate human TLR7 and/or TLR8 was assessed in a cellular reporter assay using HEK293 cells transiently transfected with a TLR7 or TLR8 expression vector and NFκB-luc reporter construct.
(§2) Briefly, HEK293 cells were grown in culture medium (DMEM supplemented with 10% FCS and 2 mM Glutamine). For transfection of cells in 15 cm dishes, cells were detached with Trypsin-EDTA, transfected with a mix of CMV-TLR7 or TLR8 plasmid (1700 ng), NFκB-luc plasmid (850 ng) and a transfection reagent and incubated for 48 h at 37° C. in a humidified 5% CO2 atmosphere. Transfected cells were then washed in PBS, detached with Trypsin-EDTA and resuspended in medium to a density of 1.25×10^5 cells/mL. Forty microliters of cells were then dispensed into each well in 384-well plates, where 200 nL of compound in 100% DMSO was already present. Following 6 hours incubation at 37° C., 5% CO2, the luciferase activity was determined by adding 15 μL of Steady Lite Plus substrate (Perkin Elmer) to each well and readout performed on a ViewLux ultraHTS microplate imager (Perkin Elmer). Dose response curves were generated from measurements performed in quadruplicates. Lowest effective concentrations (LEC) values, defined as the concentration that induces an effect which is at least two fold above the standard deviation of the assay, were determined for each compound.

In assay [1] the test system is interferon-stimulated responsive elements (ISRE). Put plainly: Activation of ISRE promoter elements in HEK-ISREluc cells by conditioned media from PBMC. The note with it: Homo sapiens, compound concentration applied to PBMCs, supernatant transferred to HEK-ISREluc cells, 24 hours, read-out: HEK-ISRE luc (LEC). The method, then: The potential of compounds to induce IFN-I was also evaluated by measuring the activation of interferon-stimulated responsive elements (ISRE) by conditioned media from PBMC. The ISRE element of sequence GAAACTGAAACT (SEQ ID: 1) is highly responsive to the STAT1-STAT2-IRF9 transcription factor, activated upon binding of IFN-I to their receptor IFNAR (Clontech, PT3372-5W). The plasmid pISRE-Luc from Clontech (ref. 631913) contains 5 copies of this ISRE element, followed by the firefly luciferase ORF. A HEK293 cell line stably transfected with pISRE-Luc (HEK-ISREluc) was established to profile the conditioned PBMC cell culture media.
Briefly, PBMCs were prepared from buffy coats of at least two donors using a standard Ficoll centrifugation protocol. Isolated PBMCs were resuspended in RPMI medium supplemented with 10% human AB serum and 2×10^5 cells/well were dispensed into 384-well plates containing compounds (70 μL total volume). After overnight incubation, 10 μL of supernatant was transferred to 384-well plates containing 5×10^3 HEK-ISREluc cells/well in 30 μL (plated the day before). Following 24 hours of incubation, activation of the ISRE elements was measured by assaying luciferase activity using 40 μL/well Steady Lite Plus substrate (Perkin Elmer) and measured with ViewLux ultraHTS microplate imager (Perkin Elmer). The stimulating activity of each compound on the HEK-ISREluc cells was reported as LEC value, defined as the compound concentration applied to the PBMCs resulting in a luciferase activity at least two fold above the standard deviation of the assay. The LEC in turn indicates the degree of ISRE activation on transfer of a defined amount of PBMC culture medium. Recombinant interferon α-2a (Roferon-A) was used as a standard control compound.

In the next assay the target is T2, human TLR7 (Homo sapiens, UniProt Q9NYK1).
T2 construct: expressed in transfected cells; host or cells: HEK293
T2 sequence (Q9NYK1 27-1049): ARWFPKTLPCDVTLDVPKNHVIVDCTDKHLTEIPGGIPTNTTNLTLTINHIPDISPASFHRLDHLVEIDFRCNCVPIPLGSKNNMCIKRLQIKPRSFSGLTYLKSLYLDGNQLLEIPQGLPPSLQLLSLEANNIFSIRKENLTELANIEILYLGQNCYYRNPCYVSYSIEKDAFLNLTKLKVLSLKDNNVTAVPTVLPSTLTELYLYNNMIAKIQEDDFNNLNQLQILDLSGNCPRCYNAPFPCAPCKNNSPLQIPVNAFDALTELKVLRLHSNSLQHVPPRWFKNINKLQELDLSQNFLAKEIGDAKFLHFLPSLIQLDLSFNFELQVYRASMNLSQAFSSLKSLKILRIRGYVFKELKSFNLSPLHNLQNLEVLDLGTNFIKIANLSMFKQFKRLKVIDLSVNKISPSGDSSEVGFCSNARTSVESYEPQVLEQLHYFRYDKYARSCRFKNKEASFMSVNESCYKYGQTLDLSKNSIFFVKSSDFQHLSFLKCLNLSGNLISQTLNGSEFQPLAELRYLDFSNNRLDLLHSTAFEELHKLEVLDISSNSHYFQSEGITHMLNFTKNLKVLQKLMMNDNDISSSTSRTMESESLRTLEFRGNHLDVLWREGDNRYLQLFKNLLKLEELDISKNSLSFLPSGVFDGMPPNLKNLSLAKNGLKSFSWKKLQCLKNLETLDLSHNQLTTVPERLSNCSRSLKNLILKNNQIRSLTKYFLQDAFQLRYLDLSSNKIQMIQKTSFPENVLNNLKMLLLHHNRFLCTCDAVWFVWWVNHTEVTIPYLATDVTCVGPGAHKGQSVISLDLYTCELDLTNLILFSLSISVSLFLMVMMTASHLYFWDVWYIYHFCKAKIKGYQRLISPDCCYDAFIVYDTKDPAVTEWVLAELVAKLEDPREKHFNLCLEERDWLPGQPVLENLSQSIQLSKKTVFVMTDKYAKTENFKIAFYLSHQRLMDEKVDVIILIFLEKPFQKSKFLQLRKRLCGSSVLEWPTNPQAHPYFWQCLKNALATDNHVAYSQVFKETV
Put plainly: TLR7 cellular NFκB-luc reporter assay in transiently transfected HEK293 cells. The note with it: lowest effective concentration, 6 hours incubation. Here is the method:
as §1, §2

Data on 18 molecules can be found in US10723707B2, “Heterocyclic substituted 2-amino quinazoline derivatives for the treatment of viral infections” (JANSSEN SCIENCES IRELAND UNLIMITED COMPANY, priority 2012, dated 2020).

Turning to `C[C@@H](Nc1nc(N)nc2ccccc12)c1ccccn1` (single isomer, unassigned) [Compound 1], the “Human TLR 8 (LEC)” value at human TLR8 is more than 25 µM. In addition, in assay [1], the minimal effective concentration was found to be 0.61 µM. Moreover, the “Human TLR 7 (LEC)” value on human TLR7 came to 0.72 µM.

On to `COc1cccc2nc(N)nc(N[C@H](C)c3ccccn3)c12` (single isomer, unassigned) [Compound 2], for which, on human TLR8, the “Human TLR 8 (LEC)” value was more than 25 µM. Besides, in assay [1], the minimal effective concentration was 0.49 µM. Further, the “Human TLR 7 (LEC)” value on human TLR7 is 0.94 µM.

As for `COc1cccc2nc(N)nc(N[C@H](c3ccccn3)C(F)(F)F)c12` (single isomer, unassigned) [Compound 3], the “Human TLR 8 (LEC)” value on human TLR8 is more than 25 µM. The minimal effective concentration in assay [1] was found to be 0.47 µM. Further, on human TLR7, the “Human TLR 7 (LEC)” value came to 0.76 µM.

`C[C@@H](Nc1nc(N)nc2cc(F)ccc12)c1ccccn1` (single isomer, unassigned) [Compound 4]: the “Human TLR 8 (LEC)” value at human TLR8 was found to be 19.8 µM. In addition, the minimal effective concentration in assay [1] worked out at 0.59 µM. The “Human TLR 7 (LEC)” value at human TLR7 was 0.92 µM.

Consider `Cc1ccc2c(N[C@H](C)c3ccccn3)nc(N)nc2c1` (single isomer, unassigned) [Compound 5], for which the “Human TLR 8 (LEC)” value on human TLR8 amounted to 14.7 µM. In addition, the minimal effective concentration in assay [1] was 0.11 µM. Also, the “Human TLR 7 (LEC)” value on human TLR7 was 0.53 µM.

`COc1ccc2c(N[C@H](C)c3ccccn3)nc(N)nc2c1` (single isomer, unassigned) [Compound 6]: the “Human TLR 8 (LEC)” value on human TLR8 was more than 25 µM. Besides, the minimal effective concentration in assay [1] came out at 0.64 µM. Also, the “Human TLR 7 (LEC)” value on human TLR7 is 3.75 µM.

As to `C[C@@H](Nc1nc(N)nc2cc(Cl)ccc12)c1ccccn1` (single isomer, unassigned) [Compound 7], on human TLR8, the “Human TLR 8 (LEC)” value came to 16.4 µM. Moreover, the minimal effective concentration in assay [1] was 0.38 µM. In addition, the “Human TLR 7 (LEC)” value on human TLR7 is 0.82 µM.

`COC(=O)c1ccc2c(N[C@H](C)c3ccccn3)nc(N)nc2c1` (single isomer, unassigned) [Compound 8]: the minimal effective concentration in assay [1] came to 2.11 µM. In addition, the “Human TLR 7 (LEC)” value on human TLR7 was determined as 4.94 µM.

Consider `C[C@@H](Nc1nc(N)nc2c(F)cccc12)c1ccccn1` (single isomer, unassigned) [Compound 9], for which, at human TLR8, the “Human TLR 8 (LEC)” value was more than 25 µM. In assay [1], the minimal effective concentration was determined as 1.68 µM. In addition, at human TLR7, the “Human TLR 7 (LEC)” value was 5.21 µM.

For the molecule `COc1cccc2nc(N)nc(N[C@H](C)c3nccs3)c12` (single isomer, unassigned) [Compound 10], at human TLR8, the “Human TLR 8 (LEC)” value came out at 12.3 µM. In addition, the minimal effective concentration in assay [1] came out at 0.11 µM. On human TLR7, the “Human TLR 7 (LEC)” value stood at 0.42 µM.

Turning to `COc1cccc2nc(N)nc(N[C@H](C)c3cnn(C)c3)c12` (single isomer, unassigned) [Compound 16], the “Human TLR 8 (LEC)” value at human TLR8 came out at 9.14 µM. Further, the minimal effective concentration in assay [1] amounted to 0.55 µM. Also, the “Human TLR 7 (LEC)” value on human TLR7 was 2.44 µM.

Consider `C[C@H](Nc1nc(N)nc2cccc(F)c12)c1ccccn1` (single isomer, unassigned) [Compound 18], for which the “Human TLR 8 (LEC)” value on human TLR8 was found to be 24.3 µM. Besides, the minimal effective concentration in assay [1] turned out to be 7.83 µM. The “Human TLR 7 (LEC)” value on human TLR7 came to 8.25 µM.

Turning to `COc1cccc2nc(N)nc(N[C@H](C)c3cccc(C)n3)c12` (single isomer, unassigned) [Compound 20], the “Human TLR 8 (LEC)” value at human TLR8 is more than 25 µM. Moreover, in assay [1], the minimal effective concentration worked out at 0.62 µM. In addition, the “Human TLR 7 (LEC)” value at human TLR7 was 1.46 µM.

For `CCn1ncnc1[C@H](C)Nc1nc(N)nc2cccc(OC)c12` (single isomer, unassigned) [Compound 21], the “Human TLR 8 (LEC)” value at human TLR8 was found to be 8.85 µM. In assay [1], the minimal effective concentration was determined as 0.54 µM. On human TLR7, the “Human TLR 7 (LEC)” value worked out at 6.1 µM.

`CCc1noc([C@@H](C)Nc2nc(N)nc3cccc(OC)c23)n1` (single isomer, unassigned) [Compound 25]: on human TLR8, the “Human TLR 8 (LEC)” value was 6.62 µM. Besides, the minimal effective concentration in assay [1] came to 0.49 µM. Further, the “Human TLR 7 (LEC)” value on human TLR7 is 1.95 µM.

In the case of `CCN(CC)C(=O)c1ccc2c(N[C@H](C)c3ccccn3)nc(N)nc2c1` (single isomer, unassigned) [Compound 26], at human TLR8, the “Human TLR 8 (LEC)” value is more than 25 µM. In assay [1], the minimal effective concentration was determined as 7.33 µM. For the same molecule, the “Human TLR 7 (LEC)” value at human TLR7 came out at 2.14 µM.

`CNC(=O)c1ccc2c(N[C@H](C)c3ccccn3)nc(N)nc2c1` (single isomer, unassigned) [Compound 27]: the “Human TLR 8 (LEC)” value at human TLR8 is more than 25 µM. In assay [1], the minimal effective concentration is 5.04 µM. Moreover, the “Human TLR 7 (LEC)” value at human TLR7 came to 8.24 µM.

Take `COCCOc1cccc2nc(N)nc(NCc3cc(C)on3)c12` [Compound 29]: the “Human TLR 8 (LEC)” value on human TLR8 was determined as 8.15 µM. For the same molecule, the “Human TLR 7 (LEC)” value at human TLR7 came out at 0.082 µM.
